Source: patent publication US10000483B2, “Bone marrow on X chromosome kinase (BMX) inhibitors and uses thereof” (Dana-Farber Cancer Institute, Inc., priority 2012, dated 2018)

Experiments:
WT-Ba/F3 cells = assay: cells; settings: Mus musculus, BaF3, read-out: GI50, WT-Ba/F3
YSK4 = YSK4 (Homo sapiens (Human), UniProt Q56UN5); assay: Kinase panel at 1 uM (Table 9); assay type: binding; settings: read-out: % inhibition at 1 uM, YSK4
Text: (§2) Screening hits are identified by measuring the amount of protein captured in test versus control samples by using a quantitative, precise, and ultra-sensitive qPCR method that detects the associated DNA label.

mTOR = mTOR (Homo sapiens (Human), UniProt P42345); assay: DiscoverX binding assay; settings: read-out: % inhibition at 1 uM, MTOR
Text: as §2

[1] = test system: TYK2E957D transformed Ba/F3 cells; assay: cells; settings: Mus musculus, BaF3, read-out: GI50, TYK2E957D
BLK = BLK (Homo sapiens (Human), UniProt P51451); assay: DiscoverX binding assay
Text: as §2

JNK3 = JNK3 (Homo sapiens (Human), UniProt P53779); assay: Kinase panel at 1 uM (Table 9); assay type: binding; settings: read-out: % inhibition at 1 uM, JNK3
Text: as §2

RV1 cells = assay: Prostate cancer cell apoptosis, cleaved caspase 3; assay type: cell-based
Text: Caspase-3 positive cells were counted and normalized to total cell number (N=5).

PIK4CB = PIK4CB (Homo sapiens (Human), UniProt Q9UBF8); assay: Kinase panel at 1 uM (Table 9); assay type: binding; settings: read-out: % inhibition at 1 uM, PIK4CB
Text: as §2

DYRK2 = DYRK2 (Homo sapiens (Human), UniProt Q92630); assay: Kinase panel at 1 uM (Table 9); assay type: binding; settings: read-out: % inhibition at 1 uM, DYRK2
Text: as §2

TEC = TEC (Homo sapiens (Human), UniProt P42680); assay: DiscoverX binding assay
Text: as §2

VACP cells = assay: cells; settings: read-out: GI50, VACP
Protocol: (§3) Data were normalized to control group (DMSO) and represented by the mean of at least two independent measurement with standard error <20%. GI50 were calculated using Prism 5.0 (GraphPad Software, San Diego, Calif.).

CLK2 = CLK2 (Homo sapiens (Human), UniProt P49760); assay: DiscoverX binding assay; settings: read-out: % inhibition at 1 uM, CLK2
Text: as §2

BMX [2] = biological target: T1, BMX (Homo sapiens (Human), UniProt P51813); assay: BMX autophosphorylation in RV-1 cells; assay type: cell-based
mTORC1 = mTORC1 (Homo sapiens (Human), UniProt P42345); assay: Invitrogen Select Screening in vitro kinase assay; assay type: biochemical
Text: (§4) The in vitro activity of compounds of Formula (I) and (II) in inhibiting BMX and other kinases were obtained using an Invitrogen Select Screening assay as known in the art.

CSNK2A2 = CSNK2A2 (Homo sapiens (Human), UniProt P19784); assay: Kinase panel at 1 uM (Table 9); assay type: binding; settings: read-out: % inhibition at 1 uM, CSNK2A2
Text: as §2

PIP5K2C = PIP5K2C (Homo sapiens (Human), UniProt Q8TBX8); assay: Kinase panel at 1 uM (Table 9); assay type: binding; settings: read-out: % inhibition at 1 uM, PIP5K2C
Text: as §2

FLT3(ITD) = assay: Kinase panel at 1 uM (Table 9); assay type: binding
Text: as §2

DYRK1A = DYRK1A (Homo sapiens (Human), UniProt Q13627); assay: Kinase panel at 1 uM (Table 9); assay type: binding; settings: read-out: % inhibition at 1 uM, DYRK1A
Text: as §2

BMX [3] = biological target: T1, BMX; assay: Invitrogen Select Screening in vitro kinase assay; assay type: biochemical
Text: as §4

OCI-Ly19 cells = assay: Cell proliferation analysis for WM and lymphoma cell lines (CellTiter-Glo); assay type: cell-based; settings: Homo sapiens, 72 hours
Protocol: (§5) Various cell lines were used including Waldenström's macroglobulinemia (WM) cell lines (BCWM.1, MWCL-1, RPCI-WM1) and B-cell lymphoma cell lines (OCI-Ly3, Ramos, OCI-Ly19). Cells were seeded into 384 well plates with the EL406 Combination Washer Dispenser (BioTek Instruments, Inc.) and inhibitor compounds were injected into the cells culture media with the JANUS Automated Workstation (PerkinElmer Inc.).

PIK3CG = PIK3CG (Homo sapiens (Human), UniProt P48736); assay: Kinase panel at 1 uM (Table 9); assay type: binding; settings: read-out: % inhibition at 1 uM, PIK3CG
Text: as §2

Ramos cells = assay: Cell proliferation analysis for WM and lymphoma cell lines (CellTiter-Glo); assay type: cell-based; settings: Homo sapiens, 72 hours
Protocol: as §5

RV1 xenograft = RV1 xenograft growth; settings: over 2 weeks, in vivo treatment; FIG. 19
RV-1 cells = assay: Anti-proliferation assay for prostate cancer cells (CellTiter-Glo); assay type: cell-based
Protocol: as §3

MKNK2 = MKNK2 (Homo sapiens (Human), UniProt Q9HBH9); assay: Kinase panel at 1 uM (Table 9); assay type: binding; settings: read-out: % inhibition at 1 uM, MKNK2
Text: as §2

BMX [4] = biological target: T1, BMX; assay: DiscoverX binding assay
Text: as §2

wild-type (WT) BMX = wild-type (WT) BMX (Homo sapiens (Human), UniProt P51813); assay: IP kinase assay, BMX autophosphorylation; assay type: biochemical; settings: FIG. 15
Text: (§1) FIG. 15 confirms that the potency of the BMX inhibitors is due to covalent binding to cysteine 496.

BMX (C496S) = BMX (C496S) (Homo sapiens (Human), UniProt P51813, C496S); assay: IP kinase assay, BMX autophosphorylation; assay type: biochemical; settings: FIG. 15A
Text: as §1

TAK1 = TAK1 (Homo sapiens (Human), UniProt O43318); assay: Kinase panel at 1 uM (Table 9); assay type: binding; settings: read-out: % inhibition at 1 uM, TAK1
Text: as §2

OCI-Ly3 cells = assay: Cell proliferation analysis for WM and lymphoma cell lines (CellTiter-Glo); assay type: cell-based; settings: Homo sapiens, 72 hours
Protocol: as §5

ITK = ITK (Homo sapiens (Human), UniProt Q08881); assay: Invitrogen Select Screening in vitro kinase assay; assay type: biochemical
Text: as §4

C4-2 cells = assay: cells; settings: C4-2, read-out: GI50, C4-2
Protocol: as §3

[5] = test system: RV-1 cells expressing wild-type BMX or C496S mutant; settings: FIG. 16
FAK pY576/577 = assay: FAK pYpY phosphorylation blot in RV1 cells cotransfected with BMX and FAK; assay type: cell-based; settings: FIG. 17
[6] = test system: TEL-BMX transformed Ba/F3 cells; assay: cells; settings: Mus musculus, BaF3, read-out: GI50, TEL-BMX
[7] = test system: TEL-Abl transformed Ba/F3 cells; assay: cells; settings: Mus musculus, BaF3, read-out: GI50, TEL-Abl
IRAK3 = IRAK3 (Homo sapiens (Human), UniProt Q9Y616); assay: Kinase panel at 1 uM (Table 9); assay type: binding; settings: read-out: % inhibition at 1 uM, IRAK3
Text: as §2

C=CC(=O)Nc1cc(-n2c(=O)ccc3cnc4ccc(-c5ccc(NS(C)(=O)=O)cc5)cc4c32)ccc1C [I-14]
GI50 (WT-Ba/F3 cells): > 10 µM | inhibition at 1 µM (YSK4): 100% | inhibition at 1 µM (mTOR): 45% | GI50 [1]: 6.09 µM | Percent Control, BLK (BLK; DiscoverX binding): 40% | inhibition at 1 µM (BLK; read-out: % inhibition at 1 uM, BLK): 40% | inhibition at 1 µM (JNK3): 100% | cell numbers and apoptosis by Caspase 3 staining (RV1 cells; 5 pM concentration (so in the source)): reduced cell numbers and induced apoptosis | concentration causing apoptosis based on increased cleaved caspase 3 (RV1 cells; FIG. 18C): 10 to 20 µM | inhibition at 1 µM (PIK4CB): 79% | inhibition at 1 µM (DYRK2): 100% | Percent Control, TEC (TEC): 27% | GI50 (VACP cells): 2460 nM | inhibition at 1 µM (CLK2): 100% | concentration sufficient to inhibit BMX autophosphorylation in RV-1 cells (BMX [2]): ≤ 1 µM | IC50 (mTORC1): 7.4 µM | inhibition at 1 µM (CSNK2A2): 100% | inhibition at 1 µM (PIP5K2C): 5.6% | % inhibition at 1 uM, FLT3(ITD) (FLT3(ITD)): 99% | inhibition at 1 µM (DYRK1A): 100% | IC50 (BMX [3]): 7.99 nM | EC50 (OCI-Ly19 cells): 900 nM | inhibition at 1 µM (PIK3CG): 2.8% | EC50 (Ramos cells): > 20 µM | RV1 xenograft growth (RV1 xenograft): decreased | GI50 (RV-1 cells; RV-1): 2540 nM | IC50 (RV-1 cells; RV-1, 120 h, 5 day incubation): 2530 nM | inhibition at 1 µM (MKNK2): 100% | Percent Control, BMX (BMX [4]): 29% | concentration inhibiting autophosphorylation of wild-type BMX (wild-type (WT) BMX): 10 to 100 nM | concentration inhibiting autophosphorylation of BMX (C496S) (BMX (C496S)): > 10,000 nM | inhibition at 1 µM (TAK1): 83% | EC50 (OCI-Ly3 cells): > 20 µM | IC50 (ITK): 5.25 µM | GI50 (C4-2 cells): > 10 µM | growth inhibition of cells expressing wild-type BMX versus C496S mutant [5]: more potently inhibits growth of cells expressing the wild-type BMX than the C496S mutant | BMX mediated phosphorylation of pYpY site on FAK (FAK pY576/577): inhibits BMX mediated phosphorylation of pYpY site on FAK | GI50 [6]: 25 nM | GI50 [7]: > 10 µM | inhibition at 1 µM (IRAK3): 73%
